Measured values published in PMC5218480 (PLoS ONE, 2017).

Tested on: MV-4-11 cells
Assay: Gene expression microarray analysis (Affymetrix PrimeView) and GSEA
Assay type: cell-based, human
Set-up: RFU PODN (11730768_x_at) / Fold change /veh PODN (11730768_x_at) / RFU LINC00158 (11744669_a_at) / Fold change /veh LINC00158 (11744669_a_at) / RFU DUSP10 (11751237_a_at) / Fold change /veh DUSP10 (11751237_a_at) / RFU ID3 (11757404_x_at) / Fold change /veh ID3 (11757404_x_at) / RFU PLEKHG5 (11737974_s_at) / Fold change /veh PLEKHG5 (11737974_s_at) / RFU LRRC4B (11730491_at) / Fold change /veh LRRC4B (11730491_at) / RFU GIMAP4 (11747438_a_at) / Fold change /veh GIMAP4 (11747438_a_at) / RFU KRT8 (11758183_x_at) / Fold change /veh KRT8 (11758183_x_at) / RFU CNN1 (11734310_a_at) / Fold change /veh CNN1 (11734310_a_at) / RFU VPS37D (11726825_at) / Fold change /veh VPS37D (11726825_at) / RFU C10orf10 (11716522_x_at) / Fold change /veh C10orf10 (11716522_x_at) / RFU KIR2DL2 /// KIR2DL4 /// KIR2DL5A /// KIR2DL5B /// KIR2DS1 /// KIR2DS2 /// KIR2DS3 /// KIR2DS4 /// KIR3DL3 /// KIR3DL3 /// KIR3DS1 (11738374_at) / Fold change /veh KIR2DL2 /// KIR2DL4 /// KIR2DL5A /// KIR2DL5B /// KIR2DS1 /// KIR2DS2 /// KIR2DS3 /// KIR2DS4 /// KIR3DL3 /// KIR3DL3 /// KIR3DS1 (11738374_at) / RFU C1QL1 (11718748_at) / Fold change /veh C1QL1 (11718748_at) / RFU TMPRSS4 (11747572_a_at) / Fold change /veh TMPRSS4 (11747572_a_at) / RFU HAMP (11756126_x_at) / Fold change /veh HAMP (11756126_x_at) / RFU RNFT2 (11725882_a_at) / Fold change /veh RNFT2 (11725882_a_at) / RFU NR4A2 (11747474_a_at) / Fold change /veh NR4A2 (11747474_a_at) / RFU ABCC12 (11746883_a_at) / Fold change /veh ABCC12 (11746883_a_at) / RFU TMEM136 (11760407_x_at) / Fold change /veh TMEM136 (11760407_x_at) / RFU CLDN22 /// WWC2 (11732394_at) / Fold change /veh CLDN22 /// WWC2 (11732394_at) / RFU HLA-DPB1 (11760878_x_at) / Fold change /veh HLA-DPB1 (11760878_x_at) / RFU SPINT1 (11716480_a_at) / Fold change /veh SPINT1 (11716480_a_at) / RFU GAP43 (11754022_s_at) / Fold change /veh GAP43 (11754022_s_at) / RFU A4GNT (11735810_at) / Fold change /veh A4GNT (11735810_at) / RFU PRB3 (11715151_x_at) / Fold change /veh PRB3 (11715151_x_at) / RFU TUBB4B (11761932_at) / Fold change /veh TUBB4B (11761932_at) / RFU CAPN14 (11732068_a_at) / Fold change /veh CAPN14 (11732068_a_at) / RFU TMCC2 (11721928_a_at) / Fold change /veh TMCC2 (11721928_a_at) / RFU IRGQ (11745062_a_at) / Fold change /veh IRGQ (11745062_a_at) / RFU FAM174B (11720279_a_at) / Fold change /veh FAM174B (11720279_a_at) / RFU TMPRSS4 (11748680_a_at) / Fold change /veh TMPRSS4 (11748680_a_at) / RFU FAM212B (11763350_a_at) / Fold change /veh FAM212B (11763350_a_at) / RFU PLEKHG5 (11743358_a_at) / Fold change /veh PLEKHG5 (11743358_a_at) / RFU ZSCAN30 (11745921_a_at) / Fold change /veh ZSCAN30 (11745921_a_at) / RFU CMKLR1 (11741424_a_at) / Fold change /veh CMKLR1 (11741424_a_at) / RFU LOC101060620 /// MAPK8IP1 (11723275_at) / Fold change /veh LOC101060620 /// MAPK8IP1 (11723275_at) / RFU SPTSSB (11747773_x_at) / Fold change /veh SPTSSB (11747773_x_at) / RFU PRSS12 (11739890_at) / Fold change /veh PRSS12 (11739890_at) / RFU BIN1 (11741810_x_at) / Fold change /veh BIN1 (11741810_x_at) / RFU WNT11 (11732464_a_at) / Fold change /veh WNT11 (11732464_a_at) / RFU C10orf10 (11716521_a_at) / Fold change /veh C10orf10 (11716521_a_at) / RFU C5orf56 (11738089_at) / Fold change /veh C5orf56 (11738089_at) / RFU CYB561 (11721691_x_at) / Fold change /veh CYB561 (11721691_x_at) / RFU ANKRD19P (11752326_a_at) / Fold change /veh ANKRD19P (11752326_a_at) / RFU OR2T12 /// OR2T33 /// OR2T8 (11738714_s_at) / Fold change /veh OR2T12 /// OR2T33 /// OR2T8 (11738714_s_at) / RFU VCAN (11748164_a_at) / Fold change /veh VCAN (11748164_a_at) / RFU JSRP1 (11732532_at) / Fold change /veh JSRP1 (11732532_at) / RFU KRTAP10-11 (11738290_x_at) / Fold change /veh KRTAP10-11 (11738290_x_at) / RFU MYO3A (11730013_a_at) / Fold change /veh MYO3A (11730013_a_at) / RFU EBF3 (11725865_a_at) / Fold change /veh EBF3 (11725865_a_at) / RFU CAMK2N1 (11719241_x_at) / Fold change /veh CAMK2N1 (11719241_x_at) / RFU C5orf56 (11738088_a_at) / Fold change /veh C5orf56 (11738088_a_at) / RFU OLFML3 (11715873_a_at) / Fold change /veh OLFML3 (11715873_a_at) / RFU LOC100653217 /// NTM (11731650_a_at) / Fold change /veh LOC100653217 /// NTM (11731650_a_at) / RFU MAPK11 (11762145_a_at) / Fold change /veh MAPK11 (11762145_a_at) / RFU FIZ1 (11724087_x_at) / Fold change /veh FIZ1 (11724087_x_at) / RFU OASL (11726364_x_at) / Fold change /veh OASL (11726364_x_at) / RFU SOX15 (11748057_x_at) / Fold change /veh SOX15 (11748057_x_at) / RFU CD79A (11719716_a_at) / Fold change /veh CD79A (11719716_a_at) / RFU HIST1H1D (11736915_at) / Fold change /veh HIST1H1D (11736915_at) / RFU CASKIN2 (11723855_a_at) / Fold change /veh CASKIN2 (11723855_a_at) / RFU LOC730098 (11760151_x_at) / Fold change /veh LOC730098 (11760151_x_at) / RFU OR4N2 (11742367_at) / Fold change /veh OR4N2 (11742367_at) / RFU PRRT2 (11749266_a_at) / Fold change /veh PRRT2 (11749266_a_at) / RFU SNX32 (11753110_a_at) / Fold change /veh SNX32 (11753110_a_at) / RFU CDHR5 (11726645_a_at) / Fold change /veh CDHR5 (11726645_a_at) / RFU RCAN1 (11760418_a_at) / Fold change /veh RCAN1 (11760418_a_at) / RFU FAM167A (11723789_a_at) / Fold change /veh FAM167A (11723789_a_at) / RFU FAM26E (11764081_at) / Fold change /veh FAM26E (11764081_at) / RFU ISYNA1 (11749810_s_at) / Fold change /veh ISYNA1 (11749810_s_at) / RFU ACY1 (11761880_at) / Fold change /veh ACY1 (11761880_at) / RFU 11764098_at / Fold change /veh 11764098_at / RFU SAMD14 (11745864_x_at) / Fold change /veh SAMD14 (11745864_x_at) / RFU NPB (11741838_a_at) / Fold change /veh NPB (11741838_a_at) / RFU TMPRSS6 (11731388_a_at) / Fold change /veh TMPRSS6 (11731388_a_at) / RFU KRTAP10-2 (11738614_at) / Fold change /veh KRTAP10-2 (11738614_at) / RFU ARHGAP8 /// PRR5-ARHGAP8 (11727945_x_at) / Fold change /veh ARHGAP8 /// PRR5-ARHGAP8 (11727945_x_at) / RFU KRTAP5-7 /// NADSYN1 (11734609_at) / Fold change /veh KRTAP5-7 /// NADSYN1 (11734609_at) / RFU RASL12 (11751679_a_at) / Fold change /veh RASL12 (11751679_a_at) / RFU CDKN2B (11736163_a_at) / Fold change /veh CDKN2B (11736163_a_at) / RFU PRF1 (11729649_at) / Fold change /veh PRF1 (11729649_at) / RFU, ZNF638 /// ZNF638-IT1 / Fold change vs veh, ZNF638 /// ZNF638-IT1 / RFU, PANK3 / Fold change vs veh, PANK3 / RFU, SH3YL1 / Fold change vs veh, SH3YL1 / RFU, ZEB2 / Fold change vs veh, ZEB2 / RFU, NRIP1 / Fold change vs veh, NRIP1 / RFU, PTTG1IP / Fold change vs veh, PTTG1IP / RFU, CAPN2 / Fold change vs veh, CAPN2 / RFU, MED14 / Fold change vs veh, MED14 / RFU, SNORA58 / Fold change vs veh, SNORA58 / RFU, C1orf63 / Fold change vs veh, C1orf63 / RFU, LRRFIP1 / Fold change vs veh, LRRFIP1 / RFU, NDUFAF7 / Fold change vs veh, NDUFAF7 / RFU, SLC12A2 / Fold change vs veh, SLC12A2 / RFU, IBTK / Fold change vs veh, IBTK / RFU, ESF1 / Fold change vs veh, ESF1 / Fold change vs veh, TMEM50B / RFU, TAOK1 / Fold change vs veh, TAOK1 / RFU, ACBD3 / Fold change vs veh, ACBD3 / RFU, TMA16 / Fold change vs veh, TMA16 / RFU, RWDD3 / Fold change vs veh, RWDD3 / RFU, BCAT1 / Fold change vs veh, BCAT1 / RFU, EDEM3 / Fold change vs veh, EDEM3 / RFU, TMEM33 / Fold change vs veh, TMEM33 / RFU, WDR75 / Fold change vs veh, WDR75 / RFU, AHCTF1 / Fold change vs veh, AHCTF1 / RFU, TFRC / Fold change vs veh, TFRC / RFU, ZDHHC17 / Fold change vs veh, ZDHHC17 / RFU, NOM1 / Fold change vs veh, NOM1 / RFU, ARL8B / Fold change vs veh, ARL8B / RFU, ZBTB11 / Fold change vs veh, ZBTB11 / RFU, TAMM41 / Fold change vs veh, TAMM41 / RFU, KIAA1704 /// LOC100996395 / Fold change vs veh, KIAA1704 /// LOC100996395 / RFU, ING1 / Fold change vs veh, ING1 / RFU, TRMT61B / Fold change vs veh, TRMT61B / RFU, FUBP3 / Fold change vs veh, FUBP3 / RFU, TP53 / Fold change vs veh, TP53 / RFU, TNKS2 / Fold change vs veh, TNKS2 / RFU, ZFP14 / Fold change vs veh, ZFP14 / RFU, ACTR2 / Fold change vs veh, ACTR2 / RFU, PPP3R1 / Fold change vs veh, PPP3R1 / RFU, PIK3R1 / Fold change vs veh, PIK3R1 / RFU, HNRNPA1 / Fold change vs veh, HNRNPA1 / RFU, RNF170 / Fold change vs veh, RNF170 / RFU, ZNF28 / Fold change vs veh, ZNF28 / RFU, RNGTT / Fold change vs veh, RNGTT / RFU, OGT / Fold change vs veh, OGT / RFU, BRD1 / Fold change vs veh, BRD1 / RFU, MARS / Fold change vs veh, MARS / RFU, ZNF655 / Fold change vs veh, ZNF655 / RFU, FAHD1 / Fold change vs veh, FAHD1 / RFU, BDP1 / Fold change vs veh, BDP1 / RFU, LRRCC1 / Fold change vs veh, LRRCC1 / RFU, ARID1A / Fold change vs veh, ARID1A / RFU, ZNF146 / Fold change vs veh, ZNF146 / RFU, ZNF330 / Fold change vs veh, ZNF330 / RFU, GPN3 / Fold change vs veh, GPN3 / RFU, C9orf123 / Fold change vs veh, C9orf123 / RFU, N4BP2L2 / Fold change vs veh, N4BP2L2 / RFU, ARFIP1 / Fold change vs veh, ARFIP1 / RFU, FAM179B / Fold change vs veh, FAM179B / RFU, BCL10 / Fold change vs veh, BCL10 / RFU, UHRF1BP1L / Fold change vs veh, UHRF1BP1L / RFU, BET1 / Fold change vs veh, BET1 / RFU, CNOT2 / Fold change vs veh, CNOT2 / RFU, ZNF268 / Fold change vs veh, ZNF268 / Fold change vs veh, ZNF507 / RFU, DGCR2 / Fold change vs veh, DGCR2 / RFU, WDSUB1 / Fold change vs veh, WDSUB1 / Fold change vs veh, HSP90B1 /// MIR3652 / RFU, ADSS / Fold change vs veh, ADSS / RFU, GK / Fold change vs veh, GK / RFU, ZNF148 / Fold change vs veh, ZNF148 / RFU, TAF9 / Fold change vs veh, TAF9 / RFU, SLC1A5 / Fold change vs veh, SLC1A5 / RFU, SLMO2 / Fold change vs veh, SLMO2 / RFU, ABCC4 / Fold change vs veh, ABCC4 / RFU, LOC101060439 /// RAP1B / Fold change vs veh, LOC101060439 /// RAP1B / RFU, RFX7 / Fold change vs veh, RFX7 / RFU, GTPBP10 / Fold change vs veh, GTPBP10 / RFU, CNEP1R1 / Fold change vs veh, CNEP1R1 / RFU, BIVM-ERCC5 /// ERCC5 / Fold change vs veh, BIVM-ERCC5 /// ERCC5 / RFU, ILF3 / Fold change vs veh, ILF3 / RFU 11762660_at / Fold change /veh 11762660_at / RFU VCAN (11757783_s_at) / Fold change /veh VCAN (11757783_s_at) / RFU DDX43 (11728927_at) / Fold change /veh DDX43 (11728927_at) / RFU KRT8 (11758188_x_at) / Fold change /veh KRT8 (11758188_x_at) / RFU NKD1 (11759106_at) / Fold change /veh NKD1 (11759106_at) / RFU SRD5A1 (11742802_a_at) / Fold change /veh SRD5A1 (11742802_a_at) / RFU TPSAB1 /// TPSB2 (11721975_s_at) / Fold change /veh TPSAB1 /// TPSB2 (11721975_s_at) / RFU GSTM3 (11746129_a_at) / Fold change /veh GSTM3 (11746129_a_at) / RFU IL23R (11737362_x_at) / Fold change /veh IL23R (11737362_x_at) / RFU TMEM51 (11727254_a_at) / Fold change /veh TMEM51 (11727254_a_at) / RFU PIWIL2 (11732686_x_at) / Fold change /veh PIWIL2 (11732686_x_at) / RFU ORM1 (11744905_x_at) / Fold change /veh ORM1 (11744905_x_at) / RFU CCDC152 (11743942_at) / Fold change /veh CCDC152 (11743942_at) / RFU ECM1 (11717891_a_at) / Fold change /veh ECM1 (11717891_a_at) / RFU IL23R (11748794_a_at) / Fold change /veh IL23R (11748794_a_at) / RFU TNFAIP8L3 (11732012_x_at) / Fold change /veh TNFAIP8L3 (11732012_x_at) / RFU MBOAT4 (11741988_at) / Fold change /veh MBOAT4 (11741988_at) / RFU 11764193_at / Fold change /veh 11764193_at / RFU TMEM53 (11763286_at) / Fold change /veh TMEM53 (11763286_at) / RFU MAGEB2 (11727129_at) / Fold change /veh MAGEB2 (11727129_at) / RFU TMEM200A (11744735_a_at) / Fold change /veh TMEM200A (11744735_a_at) / RFU CCDC152 (11751479_a_at) / Fold change /veh CCDC152 (11751479_a_at) / RFU FAM211A (11726209_a_at) / Fold change /veh FAM211A (11726209_a_at) / RFU RGS16 (11746705_a_at) / Fold change /veh RGS16 (11746705_a_at) / RFU VCAN (11755009_s_at) / Fold change /veh VCAN (11755009_s_at) / RFU RHOB (11743442_s_at) / Fold change /veh RHOB (11743442_s_at) / RFU RGS16 (11720943_a_at) / Fold change /veh RGS16 (11720943_a_at) / RFU RGS16 (11720944_at) / Fold change /veh RGS16 (11720944_at) / RFU, VPS4B / Fold change vs veh, VPS4B / RFU, CREB1 / Fold change vs veh, CREB1 / RFU, DNAJC13 / Fold change vs veh, DNAJC13 / RFU, GNAQ / Fold change vs veh, GNAQ / RFU, CDK5R1 / Fold change vs veh, CDK5R1 / RFU, ZRANB3 / Fold change vs veh, ZRANB3 / RFU, CUL4A / Fold change vs veh, CUL4A / RFU, CCNY / Fold change vs veh, CCNY / RFU, UFL1 / Fold change vs veh, UFL1 / RFU, COG3 / Fold change vs veh, COG3 / RFU, DIAPH2 / Fold change vs veh, DIAPH2 / RFU, SKA2 / Fold change vs veh, SKA2 / RFU, AFF3 / Fold change vs veh, AFF3 / RFU, LMF1 / Fold change vs veh, LMF1 / RFU, IPO11 / Fold change vs veh, IPO11 / RFU, DFFB / Fold change vs veh, DFFB / RFU, FOXP1 / Fold change vs veh, FOXP1 / RFU, CARD8 / Fold change vs veh, CARD8 / RFU, STRN3 / Fold change vs veh, STRN3 / RFU, ADK / Fold change vs veh, ADK / RFU, RASSF2 / Fold change vs veh, RASSF2 / RFU, WIPF1 / Fold change vs veh, WIPF1 / RFU, LARP1B / Fold change vs veh, LARP1B / RFU, RASA1 / Fold change vs veh, RASA1 / RFU, RB1 / Fold change vs veh, RB1 / RFU, PPFIA1 / Fold change vs veh, PPFIA1 / RFU, MAT2A / Fold change vs veh, MAT2A / RFU, CCT5 / Fold change vs veh, CCT5 / RFU, WDR92 / Fold change vs veh, WDR92 / RFU, CUX1 / Fold change vs veh, CUX1 / RFU, TTC7A / Fold change vs veh, TTC7A / RFU, TMEM135 / Fold change vs veh, TMEM135 / RFU, DEPTOR / Fold change vs veh, DEPTOR / RFU, CPM / Fold change vs veh, CPM / RFU, DNAJB6 / Fold change vs veh, DNAJB6 / RFU, CACNA2D3 / Fold change vs veh, CACNA2D3 / RFU, DTX4 / Fold change vs veh, DTX4 / RFU, TFCP2 / Fold change vs veh, TFCP2 / RFU, GMCL1 /// GMCL1P1 / Fold change vs veh, GMCL1 /// GMCL1P1 / RFU, AEBP2 / Fold change vs veh, AEBP2 / RFU, SNHG1 /// SNORD22 /// SNORD25 /// SNORD26 /// SNORD27 /// SNORD28 /// SNORD29 /// SNORD31 / Fold change vs veh, SNHG1 /// SNORD22 /// SNORD25 /// SNORD26 /// SNORD27 /// SNORD28 /// SNORD29 /// SNORD31 / Fold change (Aza/veh), C12orf56 (ProbeSet 11735607_a_at) / Fold change (ACY-1035/veh), C12orf56 (ProbeSet 11735607_a_at) / Fold change (Aza/veh), FGFR1OP (ProbeSet 11751329_s_at) / Fold change (ACY-1035/veh), FGFR1OP (ProbeSet 11751329_s_at) / Fold change (Aza/veh), VPS36 (ProbeSet 11739960_a_at) / Fold change (ACY-1035/veh), VPS36 (ProbeSet 11739960_a_at) / RFU SYPL1 (11715823_x_at) / Fold change /veh SYPL1 (11715823_x_at) / RFU IGFBP7 (11715501_s_at) / Fold change /veh IGFBP7 (11715501_s_at) / RFU REEP3 (11722064_at) / Fold change /veh REEP3 (11722064_at) / RFU IGLL1 (11728026_x_at) / Fold change /veh IGLL1 (11728026_x_at): dose or concentration left out as unconfirmed
Settings: MV-4-11 cells, 48 hours

Nc1ncn([C@@H]2O[C@H](CO)[C@@H](O)[C@H]2O)c(=O)n1 [azacitidine]
Fold change /veh FAM167A (11723789_a_at): 1.19
